Assays:
S. aureus ATCC 13709 = test: MIC, NCCLS broth microdilution; format: cell-based, Staphylococcus aureus; conditions: A = S. aureus ATCC 13709 (MSSA)
From the text: (§1) In vitro biological activity data were collected for a variety of microorganisms, including Staphylococcus aureus (ATCC 27660, a methicillin resistant strain (MRSA); ATCC 13709, a methicillin sensitive strain (MSSA)), Enterococcus faecalis (ATCC 29212), Bacillus cereus (ATCC 11778), Streptococcus pneumoniae (ATCC 49619), Candida albicans (ATCC 38247), Escherichia coli (ATCC 25922), and Moraxella (now Branhamella) catarrhalis (ATCC 25238).
(§2) The minimal inhibition concentration (MIC) of these compounds was determined using the National Committee for Clinical Laboratory Standards (NCCLS) broth microdilution assay in microtiter plates, as set forth in: (1) the guidelines of the National Committee for Clinical Laboratory Standards (NCCLS) Document M7-A4 (NCCLS, 1997); (2) the guidelines of the National Committee for Clinical Laboratory Standards (NCCLS) Document M11-A4 (NCCLS, 1997); and (3) the guidelines and reference method of the National Committee for Clinical Laboratory Standards (NCCLS) Document M27-T (NCCLS, 1995). For antifungal assays, the method recommended in Murray, P R., 1995 Manual of Clinical Microbiology (ASM Press, Washington, DC.), was employed.

S. aureus ATCC 27660 = test: MIC, NCCLS broth microdilution; format: cell-based, Staphylococcus aureus; conditions: B = S. aureus ATCC 27660 (MRSA)
From the text: as §1, §2

S. pneumoniae ATCC 49619 = test: MIC, NCCLS broth microdilution; format: cell-based, Streptococcus pneumoniae; conditions: E = S. pneumoniae ATCC 49619
From the text: as §1, §2

B. cereus ATCC 11778 = test: MIC, NCCLS broth microdilution; format: cell-based, Bacillus cereus; conditions: D = B. cereus ATCC 11778
From the text: as §1, §2

E. faecalis ATCC 29212 = test: MIC, NCCLS broth microdilution; format: cell-based, Enterococcus faecalis; conditions: C = E. faecalis ATCC 29212
From the text: as §1, §2

C. albicans ATCC 38247 = test: MIC, antifungal assay; format: cell-based, Candida albicans; conditions: F = C. albicans ATCC 38247
From the text: as §1, §2

E. coli ATCC 25922 = test: MIC, NCCLS broth microdilution; format: cell-based, Escherichia coli; conditions: G = E. coli ATCC 25922
From the text: as §1, §2

[1] = system: M. catarrhalis (ATCC 25238); test: MIC, NCCLS broth microdilution; format: cell-based, Moraxella (now Branhamella) catarrhalis; conditions: H = M. catarrhalis (ATCC 25238)
From the text: as §1, §2

Measured: Minimum Inhibitory Concentration (MIC)

Cn1cc(NC(=O)c2cc3c([N+](=O)[O-])cccc3cn2)cc1C(=O)Nc1ccc(C(=O)Nc2cn(C)c(C(=O)NCCN3CCC(O)CC3)n2)cc1 [Compound A-7]
+++ (MIC ≦ 4 μg/mL): S. aureus ATCC 13709 | S. aureus ATCC 27660 | S. pneumoniae ATCC 49619 | B. cereus ATCC 11778 | E. faecalis ATCC 29212
+ (12 ≦ MIC ≦ 32 μg/mL): [1]
>32 µg/mL: C. albicans ATCC 38247 | E. coli ATCC 25922

Cn1cc(NC(=O)c2cc3ccccc3cn2)cc1C(=O)Nc1ccc(C(=O)Nc2cn(C)c(C(=O)NCCN3CCC(F)CC3)n2)cc1 [Compound A-41]
>32 µg/mL: C. albicans ATCC 38247 | E. coli ATCC 25922
+++ (MIC ≦ 4 μg/mL): S. aureus ATCC 13709 | S. aureus ATCC 27660 | S. pneumoniae ATCC 49619 | B. cereus ATCC 11778 | E. faecalis ATCC 29212 | [1]

Cn1cc(NC(=O)c2cc3ccccc3cn2)cc1C(=O)Nc1ccc(C(=O)Nc2cn(C)c(C(=O)NCCNc3ccccn3)n2)cc1 [Compound A-23]
>32 µg/mL: C. albicans ATCC 38247 | E. coli ATCC 25922
+++ (MIC ≦ 4 μg/mL): S. aureus ATCC 13709 | S. aureus ATCC 27660 | S. pneumoniae ATCC 49619 | B. cereus ATCC 11778 | E. faecalis ATCC 29212 | [1]

Cn1cc(NC(=O)c2cc3ccccc3cn2)cc1C(=O)Nc1ccc(C(=O)Nc2cn(C)c(C(=O)NCCN3CCC(O)CC3)n2)cc1 [Compound A-19]
>32 µg/mL: C. albicans ATCC 38247
+++ (MIC ≦ 4 μg/mL): S. aureus ATCC 13709 | S. aureus ATCC 27660 | S. pneumoniae ATCC 49619 | B. cereus ATCC 11778 | E. faecalis ATCC 29212 | [1]
+ (12 ≦ MIC ≦ 32 μg/mL): E. coli ATCC 25922

Cn1cc(NC(=O)c2cc3ccccc3cn2)cc1C(=O)Nc1ccc(C(=O)Nc2cn(C)c(C(=O)NCCNCCN3CCOCC3)n2)cc1 [Compound A-26]
>32 µg/mL: C. albicans ATCC 38247 | E. coli ATCC 25922 | [1]
+++ (MIC ≦ 4 μg/mL): S. aureus ATCC 13709 | S. aureus ATCC 27660 | S. pneumoniae ATCC 49619 | B. cereus ATCC 11778 | E. faecalis ATCC 29212

Cn1cc(NC(=O)c2cc3ccccc3cn2)cc1C(=O)Nc1ccc(C(=O)Nc2cn(C)c(C(=O)NCCNC(CO)(CO)CO)n2)cc1 [Compound A-49]
+++ (MIC ≦ 4 μg/mL): S. aureus ATCC 13709 | S. aureus ATCC 27660 | S. pneumoniae ATCC 49619
+ (12 ≦ MIC ≦ 32 μg/mL): E. faecalis ATCC 29212
>32 µg/mL: B. cereus ATCC 11778 | C. albicans ATCC 38247 | E. coli ATCC 25922 | [1]

Cn1cc(NC(=O)c2cc3ccccc3cn2)cc1C(=O)Nc1ccc(C(=O)Nc2cn(C)c(C(=O)NCCN3CCC(OC(=O)CCN4CCOCC4)CC3)n2)cc1 [Compound A-59]
>32 µg/mL: C. albicans ATCC 38247 | E. coli ATCC 25922
+++ (MIC ≦ 4 μg/mL): S. aureus ATCC 13709 | S. aureus ATCC 27660 | S. pneumoniae ATCC 49619 | B. cereus ATCC 11778 | E. faecalis ATCC 29212 | [1]

CC(C)N1CCN(CCC(=O)OC2CCN(CCNC(=O)c3nc(NC(=O)c4ccc(NC(=O)c5cc(NC(=O)c6cc7ccccc7cn6)cn5C)cc4)cn3C)CC2)CC1 [Compound A-53]
>32 µg/mL: C. albicans ATCC 38247 | E. coli ATCC 25922
+++ (MIC ≦ 4 μg/mL): S. aureus ATCC 13709 | S. aureus ATCC 27660 | S. pneumoniae ATCC 49619 | B. cereus ATCC 11778 | E. faecalis ATCC 29212 | [1]

Cn1cc(NC(=O)c2cc3ccccc3cn2)cc1C(=O)Nc1ccc(C(=O)Nc2cn(C)c(C(=O)NCCNCCOCCOCCN)n2)cc1 [Compound A-42]
+ (12 ≦ MIC ≦ 32 μg/mL): S. pneumoniae ATCC 49619 | C. albicans ATCC 38247
+++ (MIC ≦ 4 μg/mL): S. aureus ATCC 13709 | S. aureus ATCC 27660 | E. faecalis ATCC 29212
>32 µg/mL: E. coli ATCC 25922 | [1]
++ (4 < MIC < 12 μg/mL): B. cereus ATCC 11778

CN1CCN(CCNC(=O)c2nc(NC(=O)c3ccc(NC(=O)c4cc(NC(=O)c5cc6ccccc6cn5)cn4C)cc3)cn2C)CC1 [Compound A-12]
+++ (MIC ≦ 4 μg/mL): S. aureus ATCC 13709 | S. aureus ATCC 27660 | S. pneumoniae ATCC 49619 | B. cereus ATCC 11778 | E. faecalis ATCC 29212 | [1]
>32 µg/mL: C. albicans ATCC 38247 | E. coli ATCC 25922

CCN1CCN(CCNC(=O)c2nc(NC(=O)c3ccc(NC(=O)c4cc(NC(=O)c5cc6ccccc6cn5)cn4C)cc3)cn2C)CC1 [Compound A-13]
+++ (MIC ≦ 4 μg/mL): S. aureus ATCC 13709 | S. aureus ATCC 27660 | S. pneumoniae ATCC 49619 | B. cereus ATCC 11778 | E. faecalis ATCC 29212 | [1]
>32 µg/mL: C. albicans ATCC 38247 | E. coli ATCC 25922

Cn1cc(NC(=O)c2cc3ccccc3cn2)cc1C(=O)Nc1ccc(C(=O)Nc2cn(C)c(C(=O)NCCNCCN3CCCC3)n2)cc1 [Compound A-36]
>32 µg/mL: E. coli ATCC 25922
++ (4 < MIC < 12 μg/mL): [1]
+ (12 ≦ MIC ≦ 32 μg/mL): C. albicans ATCC 38247
+++ (MIC ≦ 4 μg/mL): S. aureus ATCC 13709 | S. aureus ATCC 27660 | S. pneumoniae ATCC 49619 | B. cereus ATCC 11778 | E. faecalis ATCC 29212
